Data set [1] has as its target T1, 20S proteasome extracted from rat liver, chymotryptic-like (CT-L) activity (Rattus norvegicus, UniProt P18421+P28075).
T1 construct: 20S proteasome extracted from rat liver; from tissue; host or cells: rat liver
Kind of data set: Proteasome inhibition, chymotryptic-like (CT-L) activity, fluorescent peptide Suc-leu-leu-Val-Tyr-AMC. The data set is classed as biochemical. To be noted: rat liver 20S proteasome, 37° C., 1 h. The protocol: (§1) The activities of the proteasome were assayed using fluorescent peptides: Suc-leu-leu-Val-Tyr-AMC (Suc represents succinyl, and AMC represents 7-amino-4-methylcoumarin, purchased from SIGMA) for determining chymotryptic-like (CT-L) activity; Z-Ala-Arg-Arg-AMC (Z represents benzyloxycarbonyl, purchased from Calbiochem) for determining trypsin-like (TL) activity; and Z-leu-leu-Glu-βNA (βNA represents β-naphtylamide, purchased from SIGMA) for determining peptidyl-glutamyl-peptide-hydrolyzing (PGPH) enzyme activity.
(§2) Method for the aforesaid activity assays is as follows: 1 μg of 20S proteasome extracted from rat liver was incubated with a 100 μL solution containing various concentrations of compounds, 50 μM fluorescent peptides and 20 mM Tris-HCl at 37° C. for 1 h, respectively. The fluorescence released from AMC and RNA reagents was measured by a spectrofluorimeter Fluostar OPTIMA and BMG Germany at excitation/emission wavelengths of 380/440 nm and 335/410 nm, respectively. 0.1% DMSO was used as a solvent control. Compared with the fluorescence of solvent control, an inhibition rate was calculated.

The target of data set [2] is T2, 20S proteasome extracted from rat liver, trypsin-like (TL) activity (Rattus norvegicus, UniProt P40112+Q9JHW0).
T2 construct: 20S proteasome extracted from rat liver; from tissue; host or cells: rat liver
Kind of data set: Proteasome inhibition, trypsin-like (TL) activity, fluorescent peptide Z-Ala-Arg-Arg-AMC. The data set is classed as biochemical. To be noted: rat liver 20S proteasome, 37° C., 1 h; read-out: T-L (IC50). As to the method: as §1
as §2, with “calculated. Said assays used anticancer drug bortezomib (leukemia drug), namely PS341 as compound for positive control.” for “calculated.”

For data set [3], the target named is T3, 20S proteasome extracted from rat liver, peptidyl-glutamyl-peptide-hydrolyzing (PGPH) enzyme activity (Rattus norvegicus, UniProt P28073+Q9JHW0).
T3 construct: 20S proteasome extracted from rat liver; from tissue; host or cells: rat liver
Nature of the data set: Proteasome inhibition, PGPH activity, fluorescent peptide Z-leu-leu-Glu-βNA. The data set is classed as biochemical. To be noted: rat liver 20S proteasome, 37° C., 1 h. As to the method:
as §1
as §2, with “calculated. Said assays used anticancer drug bortezomib (leukemia drug), namely PS341 as compound for positive control.” for “calculated.”

Data set [4] concerns HL-60 human leukemia cell. Nature of the data set: Preliminary anti-tumor screening in vitro, MTT method. The data set is classed as cell-based. To be noted: HL-60, MTT; for Test results: number of doses with inhibition > 50%; for inhibition at 0.05 µM / inhibition at 0.5 µM / inhibition at 5 µM: Homo sapiens, read-out: Inhibition rate %. More on the design: key to Test results: +++: inhibition rates at three doses are greater than 50%; ++: inhibition rates at two doses are greater than 50%; +: inhibition rate at one dose is greater than 50%. The protocol: (§3) The test methods used in this test example is the routine method for anti-tumor activities test in pharmaceutical area, for example, referring to the following reference: (J. Immunol Method, 1983, 65, 55).
(§4) Test models: A: MTT method (HL-60 human leukemia); B: SRB method (BGC-823 human gastric cancer); C: SRB method (Bel-7402 human hepatocarcinoma); D: SRB method (KB human nasopharyngeal carcinoma).
(§5) The aforesaid tests were carried out with the compounds of Examples 1-26 in the present invention, test results are shown in Tables 2-5.
A general note: Tetrazolium assays rely on reduction of a dye to a coloured formazan, in cell work by metabolically active cells.

In data set [5] the test system is BGC-823 human gastric cancer cell. Nature of the data set: Preliminary anti-tumor screening in vitro, SRB method. Type of data set: cell-based. More on the design: key to Test results: +++: inhibition rates at three doses are greater than 50%; ++: inhibition rates at two doses are greater than 50%; +: inhibition rate at one dose is greater than 50%. To be noted: BGC-823, SRB; for Test results: number of doses with inhibition > 50%; for inhibition at 0.05 µM / inhibition at 0.5 µM / inhibition at 5 µM: Homo sapiens, read-out: Inhibition rate %. The protocol:
as §3, §4, §5
For orientation: In SRB staining, fixed cells bind dye roughly in proportion to their protein.

The test system of data set [6] is Bel-7402 human hepatocarcinoma cell. The description is as above. Type of data set: cell-based. More on the design: key to Test results: +++: inhibition rates at three doses are greater than 50%; ++: inhibition rates at two doses are greater than 50%; +: inhibition rate at one dose is greater than 50%. To be noted: Bel-7402, SRB; for Test results: number of doses with inhibition > 50%; for inhibition at 0.05 µM / inhibition at 0.5 µM / inhibition at 5 µM: Homo sapiens, read-out: Inhibition rate %. The protocol:
as §3, §4, §5

The test system of data set [7] is KB human nasopharyngeal carcinoma cell. The description is as above. The data set is classed as cell-based. More on the design: key to Test results: +++: inhibition rates at three doses are greater than 50%; ++: inhibition rates at two doses are greater than 50%; +: inhibition rate at one dose is greater than 50%. To be noted: for inhibition at 0.05 µM / inhibition at 0.5 µM / inhibition at 5 µM: Homo sapiens, read-out: Inhibition rate %; for Test results: number of doses with inhibition > 50%. As to the method: as §3, §4, §5

Data set [8] concerns BGC-823 (human gastric carcinoma cell strain). Kind of data set: In vitro anti-tumor activity (IC50), standard MTT method. The data set is classed as cell-based. To be noted: 72 h, average of three determinations. As to the method: (§6) HL-60, BXPC-3 and U266 were obtained from the American Type Culture Collection (Manassas, Va.), and BGC-823 (human gastric carcinoma cell strain) was obtained from China Pharmaceutical University.
(§7) Test methods: HL-60 cells were cultured in IMDM medium containing 20% fetal bovine serum at 37° C. in 5% CO2; BGC-823 cells and BXPC-3 cells were cultured in RPMI1640 medium containing 10% fetal bovine serum at 37° C. in 5% CO2; U266 cells were cultured in RPMI1640 medium containing 15% fetal bovine serum at 37° C. in 5% CO2.
(§8) The cell growth was measured by the standard MTT method. A dispersions (150 μL, containing 3000 cells) medium was added into each well of a 96-well plate and allowed to grow, after 24 h, ten kinds of medium (50 μL) containing different concentrations of drugs were added into the corresponding wells, and continued to incubate for 72 h. Then a solution containing 5 mg/ml MTT (20 μL) was added into each well and incubated for another 4 h at 37° C. The plate was then centrifugated at 1000 rpm at 4° C. for 5 min, and the medium in upper layer was carefully discarded. The precipitates were dissolved in 100 μL of DMSO, and absorbance was read with an Infinite M200 (Tecan, Austria) microplate reader at 540 nm.
(§9) The result was expressed as IC50 value, which is the average value of three independent determinations.

The subject of data set [9] is BXPC-3 (human pancreatic cancer cell strain). The description is as above. The data set is classed as cell-based. To be noted: 72 h, average of three determinations. The protocol:
as §6, §7, §8, §9

Data set [10] concerns HL-60 (promyelocytic leukemia cell strain). Described as above. The data set is classed as cell-based. To be noted: Homo sapiens, 72 h, average of three determinations. As to the method: as §6, §7, §8, §9
The subject of data set [11] is U266 (multiple myeloma cell strain). Described as above. The data set is classed as cell-based. To be noted: Homo sapiens, U-266, 72 h, average of three determinations. The protocol: as §6, §7, §8, §9

Broadly, the IC50 is the concentration that gives 50% inhibition. One may read the inhibition as the drop in the measured response relative to a control, in per cent. In general, melting point refers to the temperature, or range, at which the solid turns liquid. Regarding `CC(C)C[C@H](NC(=O)[C@H](Cc1ccccc1)NC(=O)[C@H](Cc1ccc2ccccc2c1)NC(=O)c1cnccn1)B(O)O` [Compound 6b, N-pyrazineformyl-L-naphthylalanyl-L-phenylalanyl-L-leucine Boronic Acid], the melting point was 134 to 135 °C. Also, the IC50 in data set [1] came to 0.000417 ± 7e-05 µM. In addition, the IC50 in data set [2] is over 0.02 µM. The compound further gave an IC50 in data set [3] of 0.00443 ± 0.00141 µM. Further, in [4], the Test results is listed as “++”, the inhibition at 0.05 µM was determined as 3.58%, the inhibition at 0.5 µM stood at 87.3% and the inhibition at 5 µM turned out to be 88.9%. Also, in data set [5], the Test results was “+++”, the inhibition at 0.05 µM stood at 56.4%, the inhibition at 0.5 µM was 93.7% and the inhibition at 5 µM stood at 96.7%. In [6], the Test results is “+”, the inhibition at 0.05 µM was 22.9%, the inhibition at 0.5 µM is 56.1% and the inhibition at 5 µM is 91.6%. In data set [7], the inhibition at 0.05 µM is 23.3%, the inhibition at 0.5 µM was found to be 91.5%, the inhibition at 5 µM is 96.6% and the Test results is “++”. Further, in data set [8], the IC50 stood at 2.81 µM. Further, the concentration for half-maximal inhibition (IC50) in data set [9] amounted to 0.0318 µM. The midpoint of inhibition in [10], the IC50, lay at 0.01 µM. Besides, the IC50 in [11] amounted to 0.053 µM.

`CC(C)C[C@H](NC(=O)[C@H](Cc1ccc(O)cc1)NC(=O)[C@H](Cc1ccccc1)NC(=O)c1cnccn1)B(O)O` [Compound 6c, N-pyrazineformyl-L-phenylalanyl-L-tyrosyl-L-leucine Boronic Acid] registered a melting point of 298 to 300 °C. The compound also had an IC50 in data set [1] of 0.000395 ± 3.5e-05 µM. Further, the IC50 in [2] was over 0.02 µM. Besides, the midpoint of inhibition in data set [3], the IC50, lay at 0.00401 ± 0.00147 µM. For the same compound, in data set [4], the Test results is on record as “+”, the inhibition at 0.05 µM is -16.1%, the inhibition at 0.5 µM is -8.48% and the inhibition at 5 µM came to 65%. Moreover, in [5], the Test results is given as “+”, the inhibition at 0.05 µM amounted to 2.64%, the inhibition at 0.5 µM was found to be 25.1% and the inhibition at 5 µM is 97.7%. In data set [6], the Test results is “+”, the inhibition at 0.05 µM was -2.64%, the inhibition at 0.5 µM was -4.84% and the inhibition at 5 µM came to 71.2%. Moreover, in data set [7], the inhibition at 0.05 µM is -13.6%, the inhibition at 0.5 µM is -5.16%, the inhibition at 5 µM was determined as 95.4% and the Test results is on record as “+”. Besides, the IC50 in data set [8] turned out to be 5.14 µM. Moreover, the IC50 in data set [9] worked out at 0.445 µM. The compound also displayed an IC50 in data set [10] of 0.552 µM. Further, the IC50 in [11] is 0.25 µM.

In turn, `CC(C)C[C@H](NC(=O)[C@H](Cc1ccc2ccccc2c1)NC(=O)[C@H](Cc1ccc2ccccc2c1)NC(=O)c1cnccn1)B(O)O` [Compound 6h, N-pyrazineformyl-L-naphthylalanyl-L-naphthylalanyl-L-leucine Boronic Acid] registered a melting point of 145 to 146 °C. For the same compound, half-maximal inhibition in data set [1] (IC50) required 0.000335 ± 7.8e-05 µM. In addition, the 50% inhibitory concentration (IC50) in data set [2] was over 0.02 µM. Also, in data set [4], the Test results is reported as “++”, the inhibition at 0.05 µM was 13.6%, the inhibition at 0.5 µM was 85.7% and the inhibition at 5 µM turned out to be 88.3%. Moreover, in data set [5], the Test results is recorded as “++”, the inhibition at 0.05 µM was determined as 44.9%, the inhibition at 0.5 µM was found to be 88.1% and the inhibition at 5 µM was 97.6%. Also, in [6], the Test results is reported as “+”, the inhibition at 0.05 µM amounted to 6.61%, the inhibition at 0.5 µM turned out to be 49.8% and the inhibition at 5 µM worked out at 94.8%. In data set [7], the inhibition at 0.05 µM was 14.2%, the inhibition at 0.5 µM was 91.8%, the inhibition at 5 µM worked out at 97.4% and the Test results was “++”. In [8], this compound registered a concentration for half-maximal inhibition (IC50) of 2.45 µM. The same compound returned an IC50 in data set [9] of 0.0333 µM. In data set [10], this compound showed a 50% inhibitory concentration (IC50) of 0.0196 µM. In [11], this compound came in with an IC50 of 0.195 µM.

Consider `CC(C)C[C@H](NC(=O)[C@H](CC(C)C)NC(=O)[C@H](Cc1ccc2ccccc2c1)NC(=O)c1cnccn1)B(O)O` [Compound 6m, N-pyrazineformyl-L-naphthylalanyl-L-leucyl-L-leucine Boronic Acid], for which the IC50 in data set [1] was 0.00022 ± 7e-05 µM; in data set [2] it was over 0.02 µM; in data set [3], 0.00833 ± 0.00249 µM; in data set [8], 1.72 µM; in data set [9] it was 0.0435 µM; in [10], 0.015 µM. In [11], this compound returned a half-inhibitory concentration (IC50) of 0.12 µM. Further, the Test results in data set [4] was “++”; in data set [5] it was “+++”; in data set [6], “++”; in data set [7], “++”. Further, the inhibition at 0.05 µM came to 4.61% in data set [4], 60.3% in data set [5], 30.3% in [6] and 40.8% in data set [7]. Moreover, the inhibition at 0.5 µM in data set [4] came to 85.2%; in [5] it was 81.9%; in [6] it was 57.7%; in data set [7], 86.4%. Also, the inhibition at 5 µM in data set [4] was found to be 87.8%; in [5], 97%; in [6], 95.2%; in [7] it was 94.7%.

These data come from patent publication US9421237B2, “Tripeptide boronic acid or boronic ester, preparative method and use thereof” (PEKING UNIVERSITY, priority 2009, dated 2016).
